Reference: ChEMBL document CHEMBL3751798, “Targeting cancer cells with oleanolic and ursolic acid derived hydroxamates” (Bioorg Med Chem Lett, 2016)

Legend:
[1] = Cytotoxicity against mouse NIH/3T3 cells after 96 hrs by SRB assay; type: cell-based; conditions: NIH3T3, 96 h
FaDu = assay: Cytotoxicity against human FADU cells after 96 hrs by SRB assay; type: functional, cell-based
A549 = assay: Cytotoxicity against human A549 cells after 96 hrs by SRB assay; type: functional, cell-based; conditions: A549, 96 h
MCF7 = assay: Cytotoxicity against human MCF7 cells after 96 hrs by SRB assay; type: functional, cell-based; conditions: MCF7, 96 h
HT-29 = assay: Cytotoxicity against human HT-29 cells after 96 hrs by SRB assay; type: functional, cell-based; conditions: HT-29, 96 h
A2780 = assay: Cytotoxicity against human A2780 cells after 96 hrs by SRB assay; type: functional, cell-based; conditions: A2780, 96 h
[2] = Cytotoxicity against human 518A2 cells after 96 hrs by SRB assay; type: functional, cell-based; conditions: 518A2, 96 h

Structure (SMILES): C[C@H]1[C@H](C)CC[C@]2(C(=O)N(C)O)CC[C@]3(C)C(=CC[C@@H]4[C@@]5(C)CCC(=O)C(C)(C)[C@@H]5CC[C@]43C)[C@H]12
- EC50 [1]: 10.5 µM
- EC50 (FaDu): 17.6 µM
- EC50 (A549): 9.3 µM
- EC50 (MCF7): 17.6 µM
- EC50 (HT-29): 12.8 µM
- EC50 (A2780): 4 µM
- EC50 [2]: 12.4 µM

Structure (SMILES): CONC(=O)[C@]12CC[C@@H](C)[C@H](C)[C@H]1C1=CC[C@@H]3[C@@]4(C)CC[C@H](O)C(C)(C)[C@@H]4CC[C@@]3(C)[C@]1(C)CC2
- EC50 [1]: 16.2 µM
- EC50 (FaDu): 11.2 µM
- EC50 (A549): 8.3 µM
- EC50 (MCF7): 10 µM
- EC50 (HT-29): 15.4 µM
- EC50 (A2780): 12.1 µM
- EC50 [2]: 14.3 µM

Structure (SMILES): CC1(C)CC[C@]2(C(=O)NO)CC[C@]3(C)C(=CC[C@@H]4[C@@]5(C)CC[C@H](O)C(C)(C)[C@@H]5CC[C@]43C)[C@@H]2C1
- EC50 [1]: 4.3 µM
- EC50 (FaDu): 8.2 µM
- EC50 (A549): 4.7 µM
- EC50 (MCF7): 8.2 µM
- EC50 (HT-29): 4.7 µM
- EC50 (A2780): 3.4 µM
- EC50 [2]: 5.5 µM

Structure (SMILES): CON(C)C(=O)[C@]12CCC(C)(C)C[C@H]1C1=CC[C@@H]3[C@@]4(C)CC[C@H](OC(C)=O)C(C)(C)[C@@H]4CC[C@@]3(C)[C@]1(C)CC2
- EC50 [1]: 13.3 µM
- EC50 (FaDu): 9.4 µM
- EC50 (A549): 17.6 µM
- EC50 (MCF7): 7.5 µM
- EC50 (HT-29): 13.1 µM
- EC50 (A2780): 6.8 µM
- EC50 [2]: 8.4 µM

Structure (SMILES): C=C(C)[C@@H]1CC[C@]2(C(=O)O)CC[C@]3(C)[C@H](CC[C@@H]4[C@@]5(C)CC[C@H](O)C(C)(C)[C@@H]5CC[C@]43C)[C@@H]12 [BETULINIC ACID]
- EC50 (FaDu): 15.3 µM
- EC50 (HT-29): 14.4 µM
- EC50 [2]: 9.4 µM

Structure (SMILES): CON(C)C(=O)[C@]12CCC(C)(C)C[C@H]1C1=CC[C@@H]3[C@@]4(C)CCC(=O)C(C)(C)[C@@H]4CC[C@@]3(C)[C@]1(C)CC2
- EC50 [1]: 13.7 µM
- EC50 (FaDu): 24.3 µM
- EC50 (A549): 5.6 µM
- EC50 (MCF7): 16.4 µM
- EC50 (HT-29): 15.6 µM
- EC50 (A2780): 8.8 µM
- EC50 [2]: 20.9 µM

Structure (SMILES): CONC(=O)[C@]12CCC(C)(C)C[C@H]1C1=CC[C@@H]3[C@@]4(C)CC[C@H](O)C(C)(C)[C@@H]4CC[C@@]3(C)[C@]1(C)CC2
- EC50 [1]: 18.2 µM
- EC50 (FaDu): 14.3 µM
- EC50 (A549): 20.9 µM
- EC50 (MCF7): 17 µM
- EC50 (HT-29): 18.8 µM
- EC50 (A2780): 12.3 µM
- EC50 [2]: 12.8 µM

Structure (SMILES): C[C@H]1[C@H](C)CC[C@]2(C(=O)O)CC[C@]3(C)C(=CC[C@@H]4[C@@]5(C)CC[C@H](O)C(C)(C)[C@@H]5CC[C@]43C)[C@H]12 [URSOLIC ACID]
- EC50 [1]: 18.7 µM
- EC50 (FaDu): 14.2 µM
- EC50 (A2780): 11.7 µM

Structure (SMILES): CON(C)C(=O)[C@]12CC[C@@H](C)[C@H](C)[C@H]1C1=CC[C@@H]3[C@@]4(C)CC[C@H](OC(C)=O)C(C)(C)[C@@H]4CC[C@@]3(C)[C@]1(C)CC2
- EC50 [1]: 23 µM
- EC50 (FaDu): 15 µM
- EC50 (A549): 9.6 µM
- EC50 (MCF7): 15.4 µM
- EC50 (HT-29): 17.6 µM
- EC50 (A2780): 9.8 µM
- EC50 [2]: 12.7 µM

Structure (SMILES): CC(=O)O[C@H]1CC[C@]2(C)[C@H]3CC=C4[C@@H]5CC(C)(C)CC[C@]5(C(=O)NO)CC[C@@]4(C)[C@]3(C)CC[C@H]2C1(C)C
- EC50 [1]: 2.6 µM
- EC50 (FaDu): 10.6 µM
- EC50 (A549): 3.1 µM
- EC50 (MCF7): 9.5 µM
- EC50 (HT-29): 4.9 µM
- EC50 (A2780): 2.6 µM
- EC50 [2]: 4.2 µM

Structure (SMILES): CN(O)C(=O)[C@]12CCC(C)(C)C[C@H]1C1=CC[C@@H]3[C@@]4(C)CCC(=O)C(C)(C)[C@@H]4CC[C@@]3(C)[C@]1(C)CC2
- EC50 [1]: 9.2 µM
- EC50 (FaDu): 14.1 µM
- EC50 (A549): 8.1 µM
- EC50 (MCF7): 16.4 µM
- EC50 (HT-29): 11.9 µM
- EC50 (A2780): 4.8 µM
- EC50 [2]: 12.9 µM

Structure (SMILES): CON(C)C(=O)[C@]12CC[C@@H](C)[C@H](C)[C@H]1C1=CC[C@@H]3[C@@]4(C)CC[C@H](O)C(C)(C)[C@@H]4CC[C@@]3(C)[C@]1(C)CC2
- EC50 [1]: 23.3 µM
- EC50 (FaDu): 26.8 µM
- EC50 (A549): 11.6 µM
- EC50 (MCF7): 18.7 µM
- EC50 (HT-29): 18.4 µM
- EC50 (A2780): 21.8 µM
- EC50 [2]: 22.9 µM

Structure (SMILES): CON(C)C(=O)[C@]12CC[C@@H](C)[C@H](C)[C@H]1C1=CC[C@@H]3[C@@]4(C)CCC(=O)C(C)(C)[C@@H]4CC[C@@]3(C)[C@]1(C)CC2
- EC50 [1]: 18.5 µM
- EC50 (FaDu): 8.3 µM
- EC50 (A549): 8.7 µM
- EC50 (MCF7): 10.7 µM
- EC50 (HT-29): 18.7 µM
- EC50 (A2780): 4.5 µM
- EC50 [2]: 15.5 µM

Structure (SMILES): CC(=O)O[C@H]1CC[C@]2(C)[C@H]3CC=C4[C@@H]5[C@@H](C)[C@H](C)CC[C@]5(C(=O)NO)CC[C@@]4(C)[C@]3(C)CC[C@H]2C1(C)C
- EC50 [1]: 2.5 µM
- EC50 (FaDu): 6.4 µM
- EC50 (A549): 3.9 µM
- EC50 (MCF7): 3.3 µM
- EC50 (HT-29): 3.5 µM
- EC50 (A2780): 2.7 µM
- EC50 [2]: 3.6 µM

Structure (SMILES): CC(=O)O[C@H]1CC[C@]2(C)[C@H]3CC=C4[C@@H]5CC(C)(C)CC[C@]5(C(=O)N(C)O)CC[C@@]4(C)[C@]3(C)CC[C@H]2C1(C)C
- EC50 [1]: 12.3 µM
- EC50 (FaDu): 12.1 µM
- EC50 (A549): 10.8 µM
- EC50 (MCF7): 6.2 µM
- EC50 (HT-29): 10.6 µM
- EC50 (A2780): 7.5 µM
- EC50 [2]: 9.4 µM

Structure (SMILES): C[C@H]1[C@H](C)CC[C@]2(C(=O)N(C)O)CC[C@]3(C)C(=CC[C@@H]4[C@@]5(C)CC[C@H](O)C(C)(C)[C@@H]5CC[C@]43C)[C@H]12
- EC50 [1]: 10.1 µM
- EC50 (FaDu): 15.1 µM
- EC50 (A549): 9.7 µM
- EC50 (MCF7): 15.4 µM
- EC50 (HT-29): 12.3 µM
- EC50 (A2780): 4.5 µM
- EC50 [2]: 12.5 µM

Structure (SMILES): CONC(=O)[C@]12CC[C@@H](C)[C@H](C)[C@H]1C1=CC[C@@H]3[C@@]4(C)CCC(=O)C(C)(C)[C@@H]4CC[C@@]3(C)[C@]1(C)CC2
- EC50 [1]: 14.3 µM
- EC50 (FaDu): 12 µM
- EC50 (A549): 9.2 µM
- EC50 (MCF7): 11.2 µM
- EC50 (HT-29): 12.9 µM
- EC50 (A2780): 14.3 µM
- EC50 [2]: 12.9 µM

Structure (SMILES): C[C@H]1[C@H](C)CC[C@]2(C(=O)NO)CC[C@]3(C)C(=CC[C@@H]4[C@@]5(C)CC[C@H](O)C(C)(C)[C@@H]5CC[C@]43C)[C@H]12
- EC50 [1]: 5.5 µM
- EC50 (FaDu): 18.1 µM
- EC50 (A549): 6.7 µM
- EC50 (MCF7): 13.1 µM
- EC50 (HT-29): 7.5 µM
- EC50 (A2780): 4.6 µM
- EC50 [2]: 9.4 µM

Structure (SMILES): CN(O)C(=O)[C@]12CCC(C)(C)C[C@H]1C1=CC[C@@H]3[C@@]4(C)CC[C@H](O)C(C)(C)[C@@H]4CC[C@@]3(C)[C@]1(C)CC2
- EC50 [1]: 11.1 µM
- EC50 (FaDu): 5.8 µM
- EC50 (A549): 9.8 µM
- EC50 (MCF7): 8.3 µM
- EC50 (HT-29): 8.7 µM
- EC50 (A2780): 3.9 µM
- EC50 [2]: 11.6 µM

Structure (SMILES): CC1(C)CC[C@]2(C(=O)O)CC[C@]3(C)C(=CC[C@@H]4[C@@]5(C)CC[C@H](O)C(C)(C)[C@@H]5CC[C@]43C)[C@@H]2C1 [OLEANOLIC_ACID]
- EC50 [1]: 76.4 µM
- EC50 (FaDu): 75.4 µM
- EC50 (A549): 72.3 µM
- EC50 (MCF7): 80 µM
- EC50 (HT-29): 38.8 µM
- EC50 (A2780): 14 µM
- EC50 [2]: 64.3 µM

Structure (SMILES): CONC(=O)[C@]12CCC(C)(C)C[C@H]1C1=CC[C@@H]3[C@@]4(C)CCC(=O)C(C)(C)[C@@H]4CC[C@@]3(C)[C@]1(C)CC2
- EC50 [1]: 12.2 µM
- EC50 (FaDu): 23.1 µM
- EC50 (A549): 4.8 µM
- EC50 (MCF7): 20 µM
- EC50 (HT-29): 18.6 µM
- EC50 (A2780): 6.1 µM
- EC50 [2]: 17.7 µM

Structure (SMILES): CC(=O)O[C@H]1CC[C@]2(C)[C@H]3CC=C4[C@@H]5[C@@H](C)[C@H](C)CC[C@]5(C(=O)N(C)O)CC[C@@]4(C)[C@]3(C)CC[C@H]2C1(C)C
- EC50 [1]: 6.6 µM
- EC50 (FaDu): 11.3 µM
- EC50 (A549): 5.7 µM
- EC50 (MCF7): 7.9 µM
- EC50 (HT-29): 8.7 µM
- EC50 (A2780): 6.5 µM
- EC50 [2]: 8.4 µM

Structure (SMILES): CONC(=O)[C@]12CC[C@@H](C)[C@H](C)[C@H]1C1=CC[C@@H]3[C@@]4(C)CC[C@H](OC(C)=O)C(C)(C)[C@@H]4CC[C@@]3(C)[C@]1(C)CC2
- EC50 [1]: 14.8 µM
- EC50 (FaDu): 12.1 µM
- EC50 (A549): 6.6 µM
- EC50 (MCF7): 6.8 µM
- EC50 (HT-29): 13.2 µM
- EC50 (A2780): 10.6 µM
- EC50 [2]: 15.5 µM

Structure (SMILES): CON(C)C(=O)[C@]12CCC(C)(C)C[C@H]1C1=CC[C@@H]3[C@@]4(C)CC[C@H](O)C(C)(C)[C@@H]4CC[C@@]3(C)[C@]1(C)CC2
- EC50 [1]: 20.4 µM
- EC50 (FaDu): 29.8 µM
- EC50 (A549): 11.8 µM
- EC50 (MCF7): 16.2 µM
- EC50 (HT-29): 5.6 µM
- EC50 (A2780): 3.4 µM
- EC50 [2]: 3.3 µM

Structure (SMILES): CONC(=O)[C@]12CCC(C)(C)C[C@H]1C1=CC[C@@H]3[C@@]4(C)CC[C@H](OC(C)=O)C(C)(C)[C@@H]4CC[C@@]3(C)[C@]1(C)CC2
- EC50 [1]: 13.2 µM
- EC50 (FaDu): 12.3 µM
- EC50 (A549): 18.6 µM
- EC50 (MCF7): 9.1 µM
- EC50 (HT-29): 17.5 µM
- EC50 (A2780): 10.8 µM
- EC50 [2]: 14.2 µM
